Measurements published in patent publication US10934295B2, “Antimicrobials and methods of making and using same” (BIOVERSYS AG, priority 2016, dated 2021).

Assays:
[1] = test system: Staphylococcus aureus (S. aureus) 11540 strain; experiment: standard microdilution assay, minimum inhibitory concentration (MIC); assay type: cell-based
Method: (§1) The in vitro activity of the compounds of the present disclosure can be determined. Antimicrobial testing is typically performed to determine the minimum inhibitory concentration (MIC). Minimum inhibitory concentrations (MICs) are determined by the microdilution method in a final volume of 100 μl according to protocols outlined by The Clinical and Laboratory Standards Institute (CLSI). Performance standards for reference strains are assessed within the same experimental design to maintain quality control. See, for example, Clinical Laboratory Standards Institute: Methods for dilution antimicrobial susceptibility tests for bacteria that grow aerobically M7-A8. Approved Standard-Eighth Edition. Wayne, Pa.: CLSI; December 2008; and Clinical Laboratory Standards Institute: Performance Standards for Antimicrobial Susceptibility Testing M100-S20; Approved Standard-Twentieth Edition. Wayne, Pa.: CLSI; June 2010. The compounds of the present disclosure were tested for antimicrobial activity. The Compounds 1-32 were run against Eschericia colt (E. coli) strain ATCC25922 and against Staphylococcus aureus (S. aureus) 11540 strain using a standard microdilution assay to determine minimum inhibitory concentrations (MICs). […] It will be recognized by one skilled in the art that the compounds can be assessed against other bacterial organisms and that the presentation of data for activity against Eschericia colt and Staphylococcus aureus are illustrative and in no way is intended to limit the scope of the present disclosure. The compounds of the present disclosure can be assayed against a range of other microorganisms depending upon the performance activity desired to be gathered. Furthermore, the “+” and “−” representation and the selection of a cutoff value of 16 micrograms/mL is also illustrative and in no way is intended to limit the scope of the present disclosure.

E. coli strain ATCC25922 = experiment: as above; assay type: cell-based; details: Escherichia coli
Method: as §1

SMILES | MIC [1] | MIC (E. coli strain ATCC25922)
C[C@H](N)CCCc1cc(Cl)c(F)c(-c2cc3cn(-c4ccc(CN[C@@H](C)CCNC(=N)N)c(CC(=O)O)c4)c(=O)nc3[nH]2)c1 [Compound 1] | ≤ 16 µg/mL | > 16 µg/mL
COCCOCc1cc(-n2cc3cc(-c4cc(CCC[C@H](C)N)cc(Cl)c4F)[nH]c3nc2=O)ccc1CN[C@@H](C)CCNC(=N)N [Compound 12] | ≤ 16 µg/mL | ≤ 16 µg/mL
C[C@H](N)CCCc1cc(Cl)c(F)c(-c2cc3cn(-c4ccc(CN[C@@H](C)CCNC(=N)N)c(N(C)C)c4)c(=O)nc3[nH]2)c1 [Compound 11] | ≤ 16 µg/mL | ≤ 16 µg/mL
C[C@H](N)CCCc1cc(Cl)c(F)c(-c2cc3cn(-c4ccc([C@@H](NCCCNC(=N)N)C(F)F)cc4)c(=O)nc3[nH]2)c1 [Compound 28] | ≤ 16 µg/mL | ≤ 16 µg/mL
C[C@H](N)CCCc1cc(Cl)c(F)c(-c2cc3cn(-c4ccc(CN[C@@H](C)CCNC(=N)N)c([N+](=O)[O-])c4)c(=O)nc3[nH]2)c1 [Compound 8] | ≤ 16 µg/mL | ≤ 16 µg/mL
C=C[C@@H](CCNC(=N)N)NC(=O)c1ccc(-n2cc3cc(-c4cc(CCC[C@H](C)N)cc(Cl)c4F)[nH]c3nc2=O)cc1 [Compound 20] | ≤ 16 µg/mL | ≤ 16 µg/mL
CSC[C@@H](CCNC(=N)N)NCc1ccc(-n2cc3cc(-c4cc(CCC[C@H](C)N)cc(Cl)c4F)[nH]c3nc2=O)cc1 [Compound 24] | ≤ 16 µg/mL | ≤ 16 µg/mL
C[C@H](N)CCCc1cc(Cl)c(F)c(-c2cc3cn(-c4ccc(CO[C@H](CCNC(=N)N)CNC(=N)N)c(F)c4)c(=O)nc3[nH]2)c1 [Compound 30] | ≤ 16 µg/mL | ≤ 16 µg/mL
C[C@H](N)CCCc1cc(Cl)c(F)c(-c2cc3cn(-c4cc(F)c(CO[C@H](CCNC(=N)N)CNC(=N)N)c(F)c4)c(=O)nc3[nH]2)c1 [Compound 56] | ≤ 16 µg/mL | ≤ 16 µg/mL
C[C@H](NCCCNC(=N)N)c1ccc(-n2cc3cc(-c4cc(CCC[C@@H](N)C(F)(F)F)cc(Cl)c4F)[nH]c3nc2=O)cc1 [Compound 26] | ≤ 16 µg/mL | > 16 µg/mL
C[C@H](N)CCCc1cc(Cl)c(F)c(-c2cc3cn(-c4ccc(C(=O)N[C@H](CCNC(=N)N)CNc5ccccn5)cc4)c(=O)nc3[nH]2)c1 [Compound 21] | ≤ 16 µg/mL | ≤ 16 µg/mL
COc1cc(-n2cc3cc(-c4cc(CCC[C@H](C)N)cc(Cl)c4F)[nH]c3nc2=O)ccc1CO[C@H](CCNC(=N)N)CNC(=N)N [Compound 32] | ≤ 16 µg/mL | ≤ 16 µg/mL
C[C@H](N)CCCc1cc(Cl)c(F)c(-c2cc3cn(-c4ccc([C@@H](NCCCNC(=N)N)C(F)(F)F)cc4)c(=O)nc3[nH]2)c1 [Compound 27] | ≤ 16 µg/mL | ≤ 16 µg/mL
N=C(N)NCC[C@@H]1CSC[C@@H](c2ccc(-n3cc4cc(-c5cc(CCC[C@@H](N)C6CC6)cc(Cl)c5F)[nH]c4nc3=O)cc2)N1 [Compound 29] | ≤ 16 µg/mL | ≤ 16 µg/mL
C[C@H](N)CCCc1cc(Cl)c(F)c(-c2cc3cn(-c4ccc(C(=O)N[C@H](CCNC(=N)N)CNC(=N)N)cc4)c(=O)nc3[nH]2)c1 [Compound 19] | ≤ 16 µg/mL | ≤ 16 µg/mL
CSc1cc(-n2cc3cc(-c4cc(CCC[C@H](C)N)cc(Cl)c4F)[nH]c3nc2=O)ccc1CO[C@H](CCNC(=N)N)CNC(=N)N [Compound 31] | ≤ 16 µg/mL | ≤ 16 µg/mL
C[C@H](N)CCCc1cc(Cl)c(F)c(-c2cc3cn(-c4ccc(CN[C@@H](C)CCNC(=N)N)c(N5CCOCC5)c4)c(=O)nc3[nH]2)c1 [Compound 16] | ≤ 16 µg/mL | ≤ 16 µg/mL
C[C@H](N)CCCc1cc(Cl)c(F)c(-c2cc3cn(-c4ccc(CN[C@@H](C)CCNC(=N)N)c(S(C)(=O)=O)c4)c(=O)nc3[nH]2)c1 [Compound 6] | ≤ 16 µg/mL | ≤ 16 µg/mL
C[C@H](N)CCCc1cc(Cl)c(F)c(-c2cc3cn(-c4ccc(C(=O)N[C@H](CCNC(=N)N)CNc5ncc[nH]5)cc4)c(=O)nc3[nH]2)c1 [Compound 15] | ≤ 16 µg/mL | ≤ 16 µg/mL
CNC(=O)Cc1cc(-n2cc3cc(-c4cc(CCC[C@H](C)N)cc(Cl)c4F)[nH]c3nc2=O)ccc1CN[C@@H](C)CCNC(=N)N [Compound 2] | ≤ 16 µg/mL | ≤ 16 µg/mL

The remaining lines, values ahead:

MIC [1] | MIC (E. coli strain ATCC25922) | SMILES
≤ 16 µg/mL | ≤ 16 µg/mL | C[C@H](N)CCCc1cc(Cl)c(F)c(-c2cc3cn(-c4ccc(C(=O)N[C@@H](CO)CCNC(=N)N)cc4)c(=O)nc3[nH]2)c1 [Compound 10]
≤ 16 µg/mL | ≤ 16 µg/mL | C[C@H](N)CCCc1cc(Cl)c(F)c(-c2cc3cn(-c4ccc([C@H]5CNC[C@@H](CCNC(=N)N)N5)cc4)c(=O)nc3[nH]2)c1 [Compound 17]
≤ 16 µg/mL | ≤ 16 µg/mL | C[C@H](N)CCCc1cc(Cl)c(F)c(-c2cc3cn(-c4ccc(C(=O)N[C@@H](CN)CCNC(=N)N)cc4)c(=O)nc3[nH]2)c1 [Compound 25]
≤ 16 µg/mL | ≤ 16 µg/mL | C[C@H](N)CCCc1cc(Cl)c(F)c(-c2cc3cn(-c4ccc([C@@H]5CNC[C@@H](CCNC(=N)N)N5)cc4)c(=O)nc3[nH]2)c1 [Compound 23]
≤ 16 µg/mL | ≤ 16 µg/mL | C[C@H](N)CCCc1cc(Cl)c(F)c(-c2cc3cn(-c4ccc([C@@H]5CNC[C@H](CCNC(=N)N)O5)cc4)c(=O)nc3[nH]2)c1 [Compound 5]
≤ 16 µg/mL | ≤ 16 µg/mL | C[C@H](N)CCCc1cc(Cl)c(F)c(-c2cc3cn(-c4ccc([C@H]5CNC[C@H](CCNC(=N)N)N5)cc4)c(=O)nc3[nH]2)c1 [Compound 18]
≤ 16 µg/mL | ≤ 16 µg/mL | C[C@H](N)CCCc1cc(Cl)c(F)c(-c2cc3cn(-c4ccc(N5CCNC(CCNC(=N)N)C5)cc4)c(=O)nc3[nH]2)c1 (stereo partly drawn) [Compound 7]
≤ 16 µg/mL | ≤ 16 µg/mL | C[C@H](N)CCCc1cc(Cl)c(F)c(-c2cc3cn(-c4ccc([C@@H]5CNC[C@@H](CCNC(=N)N)O5)cc4)c(=O)nc3[nH]2)c1 [Compound 14]
≤ 16 µg/mL | ≤ 16 µg/mL | C[C@H](N)CCCc1cc(Cl)c(F)c(-c2cc3cn(-c4ccc(C(=O)N[C@@H](C)CCNC(=N)N)cc4)c(=O)nc3[nH]2)c1 [Compound 9]
≤ 16 µg/mL | ≤ 16 µg/mL | C[C@H](N)CCCc1cc(Cl)c(F)c(-c2cc3cn(-c4ccc([C@@H]5CNC[C@H](CCNC(=N)N)N5)cc4)c(=O)nc3[nH]2)c1 [Compound 22]
